Reference: patent publication US11390609B2, “Rho-associated protein kinase inhibitor, pharmaceutical composition comprising same, and preparation method and use thereof” (BEIJING TIDE PHARMACEUTICAL CO., LTD., priority 2017, dated 2022)

Experiments:
ROCK1 = ROCK1 (Homo sapiens (Human), UniProt Q13464); test: ROCK1 kinase IC50 assay (biological test method similar to the ROCK2 assay); type: biochemical
How it was run: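 Compound dilution series (9 concentrations, top solution 10000 nM, DMSO-containing buffer) incubated 2 h at room temperature with kinase, STK-S2 substrate and ATP (5× working solutions of 1.5 µM each). Phosphorylation detected by HTRF (665/615 nm emission ratio) after 1 h; inhibition relative to full-reaction and kinase-free wells, fitted for IC50.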

ROCK2 = ROCK2 (Homo sapiens, UniProt O75116); test: ROCK2 kinase IC50 assay (CISBIO HTRF KinEASE-STK S2 kit); type: biochemical; conditions: incubated at room temperature for 2 hours
Experimental: The kinase IC50 was determined by a commercialized CISBIO kinase detection kit, HTRF KinEASE-STK S2 kit (62ST2PEC). ROCK2 (01-119) employed in the reaction was purchased from Carna Biosciences.
Before the assay, the following working solutions as needed were formulated with corresponding reagents according to the instruction of the kinase detection kit: 1×kinase buffer, 5×STK-52 substrate working solution (1.5 μM) and 5×ATP working solution (1.5 μM), 5×ROCK2 kinase working solution, 4×Streptavidin-XL665 working solution, and 4×STK-Ab-Cryptate 2 detection solution. Then the assay was performed according to the following procedure.
A solution of a compound at a concentration of 10000 nM was prepared with the 1×kinase buffer containing 2.5% DMSO. Gradient dilution of the solution of the compound was performed with the kinase buffer containing DMSO, so as to obtain solutions of a test compound at 9 different concentrations. In addition to wells of test compounds, a positive well (containing all the reagents except the compound) and a negative well (containing all the reagents except the test compound and kinase) were set. Except for the control wells (positive and negative wells), a solution of a test compound (4 μL) was added to each of the reaction wells, and a solution of 2.5% DMSO was added to the control wells. Then the substrate ([…], 2 μL. 5×STK-S2 substrate working solution) was added to each of the reaction wells. The 5×ROCK2 kinase working solution (2 μL, containing 1.4 ng ROCK2 kinase) was added to each of the reaction wells except for the negative well, the volume of which was made up with the 1×kinase buffer (2 μL). The 5×ATP working solution (2 μL) was added to each of the reaction wells, and the mixtures were incubated at room temperature for 2 hours. After the kinase reaction was complete, the 4×Streptavidin-XL665 working solution was added to each of the reaction wells, the solutions were mixed, followed by immediate addition of the 4×STK-Ab-Cryptate 2 detection solution (5 μL), and the mixtures were incubated at room temperature for 1 hour. The fluorescence signal was read on ENVISION (Perkinelmer) (excitation wavelength: 320 nm, and emission wavelength: 665 nm and 615 nm). The inhibitory rate in each well was calculated based on the fluorescence intensity value: ER (Emission Ratio)=(fluorescence intensity at 665 nm/fluorescence intensity at 615 nm); inhibitory rate=(ERpositive−ERtest compound)/(ERpositive−ERnegative)*100%. Curves were plotted and fitted to obtain the median inhibitory concentration (IC50) of each teat compound with the PRISM 5.0 software.

ROCK1, sequence (Q13464 whole entry, species assumed): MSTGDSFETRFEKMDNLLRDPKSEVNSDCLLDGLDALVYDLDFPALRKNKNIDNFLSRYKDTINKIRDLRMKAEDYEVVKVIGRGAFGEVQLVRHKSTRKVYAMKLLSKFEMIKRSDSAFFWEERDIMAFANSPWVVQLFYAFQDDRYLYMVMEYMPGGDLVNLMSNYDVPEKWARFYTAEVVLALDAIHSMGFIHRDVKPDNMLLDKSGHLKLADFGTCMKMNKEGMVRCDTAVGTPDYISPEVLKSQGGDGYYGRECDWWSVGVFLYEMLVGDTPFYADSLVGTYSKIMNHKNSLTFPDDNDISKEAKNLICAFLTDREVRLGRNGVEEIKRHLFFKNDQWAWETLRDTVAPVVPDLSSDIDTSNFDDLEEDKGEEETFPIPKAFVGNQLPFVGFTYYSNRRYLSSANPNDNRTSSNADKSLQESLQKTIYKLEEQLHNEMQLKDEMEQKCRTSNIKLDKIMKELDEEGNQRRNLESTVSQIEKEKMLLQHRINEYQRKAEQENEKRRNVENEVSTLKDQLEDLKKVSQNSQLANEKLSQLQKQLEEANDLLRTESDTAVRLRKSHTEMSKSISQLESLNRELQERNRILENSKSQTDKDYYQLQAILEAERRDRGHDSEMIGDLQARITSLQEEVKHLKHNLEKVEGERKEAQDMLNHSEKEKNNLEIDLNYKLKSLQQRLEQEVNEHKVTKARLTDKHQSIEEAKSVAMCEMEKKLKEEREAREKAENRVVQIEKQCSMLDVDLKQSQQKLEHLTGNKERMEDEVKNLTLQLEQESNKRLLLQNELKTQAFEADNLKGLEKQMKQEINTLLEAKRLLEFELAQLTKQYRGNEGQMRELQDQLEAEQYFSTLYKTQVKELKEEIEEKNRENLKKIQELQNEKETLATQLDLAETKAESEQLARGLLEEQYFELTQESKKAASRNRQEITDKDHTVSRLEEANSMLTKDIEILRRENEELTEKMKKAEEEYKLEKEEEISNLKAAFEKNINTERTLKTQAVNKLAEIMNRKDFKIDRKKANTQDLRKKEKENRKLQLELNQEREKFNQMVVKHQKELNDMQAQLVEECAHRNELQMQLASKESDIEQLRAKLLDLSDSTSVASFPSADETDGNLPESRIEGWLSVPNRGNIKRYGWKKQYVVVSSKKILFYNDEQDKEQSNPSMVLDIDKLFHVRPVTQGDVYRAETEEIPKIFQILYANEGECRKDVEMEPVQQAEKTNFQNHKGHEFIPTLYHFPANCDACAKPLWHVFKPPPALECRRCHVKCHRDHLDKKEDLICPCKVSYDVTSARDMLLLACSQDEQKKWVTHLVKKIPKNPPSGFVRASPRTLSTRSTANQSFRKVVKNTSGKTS

An IC50 (ROCK1) of 4340 nM and an IC50 (ROCK2) of 203 nM were found for CC1COCCN1C(=O)c1cc2ccc(-c3nccc(Nc4ccc(-c5cn[nH]c5)cc4)n3)cc2[nH]1 (stereo not drawn) [TDI01431, (6-(4-((4-(1H-pyrazol-4-yl)phenyl)amino)pyrimidin-2-yl)-1H-indol-2-yl)(3-methylmorpholino) methanone] in this work.
An IC50 (ROCK1) of over 10000 nM and an IC50 (ROCK2) of 247 nM were found for O=C(c1cc2ccc(-c3nccc(Nc4ccc(-c5cn[nH]c5)cc4)n3)cc2[nH]1)N1CC(O)C1 [TDI01437, (6-(4-((4-(1H-pyrazol-4-yl)phenyl)amino)pyrimidin-2-yl)-1H-indol-2-yl)(3-hydroxyazetidin-1-yl)methanone] in this work.
An IC50 (ROCK1) of over 10000 nM and an IC50 (ROCK2) of 402 nM were found for O=C(c1cc2ccc(-c3nccc(Nc4ccc(-c5cn[nH]c5)cc4)n3)cc2[nH]1)N1CC[C@H](O)C1 [TDI01438, (S)-(6-(4-((4-(1H-pyrazol-4-yl)phenyl)amino)pyrimidin-2-yl)-1H-indol-2-yl)(3-hydroxypyrrolidin-1-yl)methanone] in this work.
An IC50 (ROCK1) of over 10000 nM and an IC50 (ROCK2) of 203 nM were found for CC(C)NC(=O)c1cc2ccc(-c3nc(Nc4ccc(-c5cn[nH]c5)cc4)c4sccc4n3)cc2s1 [TDI01439, 6-(4-((4-(1H-pyrazol-4-yl)phenyl)-amino)thieno-[3,2-d]pyrimidin-2-yl)-N-isopropyl-benzo-[b]thiophene-2-carboxamide] in this work.
An IC50 (ROCK1) of 6070 nM and an IC50 (ROCK2) of 181 nM were found for CC1(F)CN(C(=O)c2cc3ccc(-c4nccc(Nc5ccc(-c6cn[nH]c6)cc5)n4)cc3[nH]2)C1 [TDI01441, (6-(4-((4-(1H-pyrazol-4-yl)phenyl)amino)pyrimidin-2-yl)-1H-indol-2-yl)(3-fluoro-3-methylazetidin-1-yl)methanone] in this work.
An IC50 (ROCK1) of 8260 nM and an IC50 (ROCK2) of 32 nM were found for O=C(c1cc2ccc(-c3nccc(Nc4ccc(-c5cn[nH]c5)cc4)n3)cc2[nH]1)N1CCC(C(F)(F)F)C1 (stereo not drawn) [TDI01444, (6-(4-((4-(1H-pyrazol-4-yl)phenyl)amino)pyrimidin-2-yl)-1H-indol-2-yl)(3-(trifluoromethyl)pyrrolidin-1-yl)methanone] in this work.
An IC50 (ROCK1) of 3000 nM and an IC50 (ROCK2) of 64 nM were found for N#CC1CCN(C(=O)c2cc3ccc(-c4nccc(Nc5ccc(-c6cn[nH]c6)cc5)n4)cc3[nH]2)CC1 [TDI01445, 1-(6-(4-((4-(1H-pyrazol-4-yl)phenyl)amino)pyrimidin-2-yl)-1H-indole-2-carbonyl)piperidine-4-carbonitrile] in this work.
An IC50 (ROCK1) of 3000 nM and an IC50 (ROCK2) of 13 nM were found for N#CC1CCN(C(=O)c2cc3ccc(-c4nccc(Nc5ccc(-c6cn[nH]c6)cc5)n4)cc3[nH]2)C1 (stereo not drawn) [TDI01448, 1-(6-(4-((4-(1H-pyrazol-4-yl)phenyl)amino)pyrimidin-2-yl)-1H-indole-2-carbonyl)pyrrolidine-3-carbonitrile] in this work.
An IC50 (ROCK1) of over 10000 nM and an IC50 (ROCK2) of 453 nM were found for O=C(c1cc2ccc(-c3nc(Nc4ccc(-c5cn[nH]c5)cc4)c4sccc4n3)cc2[nH]1)N1CCOCC1 [TDI01450, (6-(4-((4-(1H-pyrazol-4-yl)phenyl)amino)thieno [3,2-d]pyrimidin-2-yl)-1H-indol-2-yl)(morpholino)methanone] in this work.
An IC50 (ROCK1) of over 10000 nM and an IC50 (ROCK2) of 29 nM were found for O=C(c1cc2ccc(-c3nccc(Nc4ccc(-c5cn[nH]c5)cc4)n3)cc2[nH]1)N1CC(F)C1 [TDI01455, (6-(4-((4-(1H-pyrazol-4-yl)phenyl)amino)pyrimidin-2-yl)-1H-indol-2-yl)(3-fluoroazetidin-1-yl)methanone] in this work.
An IC50 (ROCK1) of over 10000 nM and an IC50 (ROCK2) of 15 nM were found for O=C(NCC(F)(F)F)c1cc2ccc(-c3nccc(Nc4ccc(-c5cn[nH]c5)cc4)n3)cc2s1 [TDI01456, 6-(4-((4-(1H-pyrazol-4-yl)phenyl)-amino)-pyrimidin-2-yl)-N-(2,2,2-trifluoroethyl)-benzo[b]-thiophene-2-carboxamide] in this work.
An IC50 (ROCK1) of 4890 nM and an IC50 (ROCK2) of 395 nM were found for CC(NC(=O)c1cc2ccc(-c3nccc(Nc4ccc(-c5cn[nH]c5)cc4)n3)cc2n1C)C(F)(F)F (stereo not drawn) [TDI01457, 6-(4-((4-(1H-pyrazol-4-yl)phenyl)amino)pyrimidin-2-yl)-1-methyl-N-(1,1,1-trifluoropropan-2-yl)-1H-indole-2-carboxamide] in this work.
An IC50 (ROCK1) of 4530 nM and an IC50 (ROCK2) of 140 nM were found for CC1(C#N)CN(C(=O)c2cc3ccc(-c4nccc(Nc5ccc(-c6cn[nH]c6)cc5)n4)cc3[nH]2)C1 [TDI01461, 1-(6-(4-((4-(1H-pyrazol-4-yl)phenyl)amino)pyrimidin-2-yl)-1H-indole-2-carbonyl)-3-methylazetidine-3-carbonitrile] in this work.
An IC50 (ROCK1) of over 10000 nM and an IC50 (ROCK2) of 11 nM were found for O=C(c1cc2ccc(-c3nccc(Nc4ccc(-c5cn[nH]c5)cc4)n3)cc2[nH]1)N1CCC(F)(F)C1 [TDI01463, (6-(4-((4-(1H-pyrazol-4-yl)phenyl)amino)pyrimidin-2-yl)-1H-indol-2-yl)(3,3-difluoropyrrolidin-1-yl)methanone] in this work.
An IC50 (ROCK1) of 2280 nM and an IC50 (ROCK2) of 175 nM were found for O=C(c1cc2ccc(-c3nccc(Nc4ccc(-c5cn[nH]c5)cc4)n3)cc2[nH]1)N1CCC2(CCN2)CC1 [TDI01464, (6-(4-((4-(1H-pyrazol-4-yl)phenyl)amino)pyrimidin-2-yl)-1H-indol-2-yl)(1,7-diazaspiro[3.5]nonan-7-yl)methanone] in this work.
An IC50 (ROCK1) of over 10000 nM and an IC50 (ROCK2) of 398 nM were found for CS(=O)(=O)C1CN(C(=O)c2cc3ccc(-c4nccc(Nc5ccc(-c6cn[nH]c6)cc5)n4)cc3[nH]2)C1 [TDI01465, (6-(4-((4-(1H-pyrazol-4-yl)phenyl)amino)pyrimidin-2-yl)-1H-indol-2-yl)(3-(methylsulfonyl)azetidin-l-yl)methanone] in this work.
An IC50 (ROCK1) of over 10000 nM and an IC50 (ROCK2) of 174 nM were found for O=C(c1cc2ccc(-c3nc(Nc4ccc(-c5cn[nH]c5)cc4)c4sccc4n3)cc2[nH]1)N1CC(F)(F)C1 [TDI01472, (6-(4-((4-(1H-pyrazol-4-yl)phenyl)amino)thieno [3,2-d]pyrimidin-2-yl)-1H-indol-2-yl)(3,3-difluoroazetidin-1-yl)methanone] in this work.
An IC50 (ROCK1) of 592 nM and an IC50 (ROCK2) of 18 nM were found for O=C(c1cc2ccc(-c3nccc(Nc4ccc(-c5cn[nH]c5)cc4)n3)cc2[nH]1)N1CCC(F)C1 (stereo not drawn) [TDI01473, (6-(4-((4-(1H-pyrazol-4-yl)phenyl)amino)pyrimidin-2-yl)-1H-indol-2-yl)(3-fluoropyrrolidin-1-yl)methanone] in this work.
An IC50 (ROCK1) of 1130 nM and an IC50 (ROCK2) of 47 nM were found for O=C(c1cc2ccc(-c3nccc(Nc4ccc(-c5cn[nH]c5)cc4)n3)cc2[nH]1)N1C[C@@H](F)[C@@H](F)C1 [TDI01477, (6-(4-((4-(1H-pyrazol-4-yl)phenyl)amino)pyrimidin-2-yl)-1H-indol-2-yl)((3S,4R)-3,4-difluoropyrrolidin-1-yl)methanone] in this work.
An IC50 (ROCK1) of 3990 nM and an IC50 (ROCK2) of 276 nM were found for O=C(c1cc2ccc(-c3nccc(Nc4ccc(-c5cn[nH]c5)cc4)n3)cc2[nH]1)N1CCC(F)(F)CC1 [TDI01485, (6-(4-((4-(1H-pyrazol-4-yl)phenyl)amino)pyrimidin-2-yl)-1H-indol-2-yl)(4,4-difluoropiperidin-1-yl)methanone] in this work.
An IC50 (ROCK1) of 3000 nM and an IC50 (ROCK2) of 185 nM were found for O=C(c1cc2ccc(-c3nccc(Nc4ccc(-c5cn[nH]c5)cc4)n3)cc2[nH]1)N1CCC2(C1)CC2(F)F (stereo not drawn) [TDI01486, (6-(4-((4-(1H-pyrazol-4-yl)phenyl)amino)pyrimidin-2-yl)-1H-indol-2-yl)(1,1-difluoro-5-azaspiro[2.4]heptan-5-yl)methanone] in this work.
